# Assays:
# [1] = test system: Glycine, Strychnine-Sensitive; assay: Safety screen; format: binding, rat
# PKCβII(h) = PKCβII(h) (Homo sapiens, UniProt P05771); assay: Kinase Profiler; format: biochemical
# Protocol: (§1) The kinase profiler was performed by the company Eurofins (Discovery, Panlab and Cerep).
# CDK1/cyclinB(h) = CDK1/cyclinB(h) (Homo sapiens, UniProt P06493); assay: Kinase Profiler; format: biochemical
# Protocol: (§2) Blood cell counts, kinase profiler, safety screen, bacterial cytotoxicity, Ames, micronucleus assays were performed by the company Eurofins (France). The kinase profiler was performed by the company Eurofins (Discovery, Panlab and Cerep).
# PDGFRα(h) = PDGFRα(h) (Homo sapiens, UniProt P16234); assay: Kinase Profiler; format: biochemical
# Protocol: as §1
# MEK1(h) = MEK1(h) (Homo sapiens, UniProt Q02750); assay: Kinase Profiler; format: biochemical
# Protocol: as §1
# MSK1(h) = MSK1(h) (Homo sapiens, UniProt O75582); assay: Kinase Profiler; format: biochemical
# Protocol: as §2
# TYK2(h) = TYK2(h) (Homo sapiens, UniProt P29597); assay: Kinase Profiler; format: biochemical
# Protocol: as §2
# [2] = test system: GABAA, Chloride Channel, TBOB; assay: Safety screen; format: binding, rat
# Protocol: (§3) Blood cell counts, kinase profiler, safety screen, bacterial cytotoxicity, Ames, micronucleus assays were performed by the company Eurofins (France).
# Rsk3(h) = Rsk3(h) (Homo sapiens, UniProt Q15349); assay: Kinase Profiler; format: biochemical
# Rsk3(h), sequence (Q15349 whole entry): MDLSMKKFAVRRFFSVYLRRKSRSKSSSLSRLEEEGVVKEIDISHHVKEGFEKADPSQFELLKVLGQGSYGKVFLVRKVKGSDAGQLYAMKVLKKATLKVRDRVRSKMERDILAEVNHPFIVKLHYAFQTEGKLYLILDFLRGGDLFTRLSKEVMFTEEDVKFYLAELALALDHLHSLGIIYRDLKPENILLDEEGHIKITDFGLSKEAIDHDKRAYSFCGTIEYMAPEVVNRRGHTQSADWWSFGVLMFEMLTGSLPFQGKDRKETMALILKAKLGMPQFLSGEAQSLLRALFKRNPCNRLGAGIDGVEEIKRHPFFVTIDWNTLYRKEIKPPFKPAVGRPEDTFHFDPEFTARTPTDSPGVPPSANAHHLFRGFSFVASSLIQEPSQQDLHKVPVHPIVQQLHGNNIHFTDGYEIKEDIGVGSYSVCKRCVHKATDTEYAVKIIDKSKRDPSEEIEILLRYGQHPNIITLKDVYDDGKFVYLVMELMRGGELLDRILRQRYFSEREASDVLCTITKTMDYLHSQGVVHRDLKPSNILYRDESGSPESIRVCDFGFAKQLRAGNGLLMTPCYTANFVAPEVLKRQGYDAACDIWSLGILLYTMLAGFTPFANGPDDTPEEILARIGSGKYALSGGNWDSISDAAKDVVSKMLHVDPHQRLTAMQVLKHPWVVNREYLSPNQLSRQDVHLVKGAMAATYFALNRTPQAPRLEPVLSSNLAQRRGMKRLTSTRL
# Protocol: as §1
# GABAB1A = GABAB1A (Homo sapiens, UniProt Q9UBS5); assay: Safety screen; format: binding
# GABAB1A, sequence (Q9UBS5 15-961 limits assumed): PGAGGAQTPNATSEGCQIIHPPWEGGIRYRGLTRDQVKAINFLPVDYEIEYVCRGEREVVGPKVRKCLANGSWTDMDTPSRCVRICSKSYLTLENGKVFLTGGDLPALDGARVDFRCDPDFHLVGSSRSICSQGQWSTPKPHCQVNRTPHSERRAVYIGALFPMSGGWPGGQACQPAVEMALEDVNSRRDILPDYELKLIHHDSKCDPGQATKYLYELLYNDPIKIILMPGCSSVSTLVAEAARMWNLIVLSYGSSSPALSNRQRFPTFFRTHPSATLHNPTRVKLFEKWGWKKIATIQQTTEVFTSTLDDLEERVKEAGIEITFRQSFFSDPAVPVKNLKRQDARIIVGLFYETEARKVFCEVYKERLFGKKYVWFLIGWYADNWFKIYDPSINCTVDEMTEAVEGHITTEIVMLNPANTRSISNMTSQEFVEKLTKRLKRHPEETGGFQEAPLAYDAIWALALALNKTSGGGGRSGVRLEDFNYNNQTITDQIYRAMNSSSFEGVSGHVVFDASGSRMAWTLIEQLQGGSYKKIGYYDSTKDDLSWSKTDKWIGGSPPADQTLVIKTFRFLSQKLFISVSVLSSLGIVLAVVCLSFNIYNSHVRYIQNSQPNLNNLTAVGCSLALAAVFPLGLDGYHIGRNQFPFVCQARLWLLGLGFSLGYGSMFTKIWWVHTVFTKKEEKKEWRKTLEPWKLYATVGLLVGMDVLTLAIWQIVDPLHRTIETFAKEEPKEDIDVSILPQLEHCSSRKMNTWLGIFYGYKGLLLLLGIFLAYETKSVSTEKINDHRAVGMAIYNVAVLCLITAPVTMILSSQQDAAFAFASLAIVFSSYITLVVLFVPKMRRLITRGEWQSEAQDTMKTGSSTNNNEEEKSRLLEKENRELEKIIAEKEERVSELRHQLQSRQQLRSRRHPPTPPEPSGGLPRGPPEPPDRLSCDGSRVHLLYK
# Protocol: as §3
# TLK2(h) = TLK2(h) (Homo sapiens, UniProt Q86UE8); assay: Kinase Profiler; format: biochemical
# Protocol: as §1
# MAP4K3(h) = MAP4K3(h) (Homo sapiens, UniProt Q8IVH8); assay: Kinase Profiler; format: biochemical
# Protocol: as §1
# Muscarinic M3 = Muscarinic M3 (Homo sapiens, UniProt P20309); assay: Safety screen; format: binding
# Protocol: as §3
# GSK3β(h) = GSK3β(h) (Homo sapiens, UniProt P49841); assay: Kinase Profiler; format: biochemical
# Protocol: as §2
# CDC42 = CDC42 (Homo sapiens, UniProt P60953); assay: Surface plasmon resonance; format: binding; set-up: purchased Cytoskeleton CD01; settings: A41 0 to 25 μM
# CDC42, sequence (P60953 whole entry): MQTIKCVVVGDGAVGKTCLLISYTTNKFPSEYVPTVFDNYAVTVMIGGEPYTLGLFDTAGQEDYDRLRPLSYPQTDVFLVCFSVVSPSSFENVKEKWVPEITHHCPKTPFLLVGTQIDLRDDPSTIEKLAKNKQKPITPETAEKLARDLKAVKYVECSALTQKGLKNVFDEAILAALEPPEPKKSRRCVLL
# Protocol: SPR immobilization was performed at 25°C. RAC1, RHOA and CDC42 purified proteins (respectively […] and CD01, Cytoskeleton) were diluted to 5 μg/mL in Na^+ acetate buffer (pH 5.0) and injected into sensor chip CM5 (GE Healthcare) in a Biacore T200 (GE Healthcare) that was activated with NHS/EDC buffer. Approximately 5,000 response units of the purified protein were immobilized on the biosensor chip. Biosensor chips were blocked by an injection of 1 mM ethanolamine (pH 8.5). SPR analysis was performed at 25°C in HBSEP running buffer (5% DMSO) with or without EDTA (20 mM). A41 compound was injected over the RAC1, RHOA or CDC42 functionalized surface in concentration range from 0 to 25μM. Association and dissociation phases were monitored during 60s and 300s, respectively.
# [3] = test system: Glutamate, NMDA, Phencyclidine; assay: Safety screen; format: binding, rat
# Protocol: as §2
# PAK5(h) = PAK5(h) (Homo sapiens, UniProt Q9P286); assay: Kinase Profiler; format: biochemical
# Protocol: as §1
# IR(h), activated = IR(h), activated (Homo sapiens, UniProt P06213); assay: Kinase Profiler; format: biochemical
# Protocol: as §2
# [4] = test system: Calcium Channel L-Type, Phenylalkylamine; assay: Safety screen; format: binding, rat
# MDA-MB-468 spheroids = assay: 3D invasion assay; format: cell-based; settings: 10^-5 M
# Protocol: Figure 5 A41 decreases growth and invasiveness of TNBC cells in vitro (A) Representative images of RAC-GTP levels (red) in MDA-MB-468 Luc cells in the absence (CTL) and presence of EHT1864, NSC23766, or A41 (1 h at 10 μM) (left). Luciferase (Luc, green) was used to detect the cells. RAC-GTP mean fluorescence intensity was quantified inside the cell area (right) (n = 31–37 cells from 3 independent experiments; ∗p < 0.05, ∗∗∗p < 0.001) (scale bars: 10 μm). […] (C) Quantification of colony number of indicated cancer cell lines in the presence of A41 (10 μM) expressed as the percentage of control in the absence of A41. Results shown are representative of N > 3 independent experiments. (D) Immunoblot analysis and corresponding quantification of AKT and P44/42 expression and phosphorylation (pAKT, p44/42) in MDA-MB-468 Luc cells in the absence (−) and presence of NSC23766 or A41 (1 h at 10^−5 M). […] (E) 3D invasion assay of MDA-MB-468 Luc and cancer-associated fibroblasts (CAFs) and corresponding quantification (scale bars: 200 μm). […]
# 3D-spheroids were obtained, according the protocol previously described,[62] by re-suspending cells at a concentration of 1.25 × 10^4 cells/ml in 20% Methyl-cellulose/80% DMEM 10% FBS. […] Invasion was monitored by fully automated Dmi6000b Wide Field Fluorescence Microscope (Leica Microsystems, Wetzlar, Germany) during 48h.
# PTK5(h) = PTK5(h) (Homo sapiens, UniProt P42685); assay: Kinase Profiler; format: biochemical
# Protocol: as §1
# Phosphodiesterase PDE3 = assay: Safety screen; format: biochemical, human
# Protocol: as §3
# Ret(V804M)(h) = Ret(V804M)(h) (Homo sapiens, UniProt P07949, V804M); assay: Kinase Profiler; format: biochemical
# Ret(V804M)(h), sequence (P07949 29-1114 V804M): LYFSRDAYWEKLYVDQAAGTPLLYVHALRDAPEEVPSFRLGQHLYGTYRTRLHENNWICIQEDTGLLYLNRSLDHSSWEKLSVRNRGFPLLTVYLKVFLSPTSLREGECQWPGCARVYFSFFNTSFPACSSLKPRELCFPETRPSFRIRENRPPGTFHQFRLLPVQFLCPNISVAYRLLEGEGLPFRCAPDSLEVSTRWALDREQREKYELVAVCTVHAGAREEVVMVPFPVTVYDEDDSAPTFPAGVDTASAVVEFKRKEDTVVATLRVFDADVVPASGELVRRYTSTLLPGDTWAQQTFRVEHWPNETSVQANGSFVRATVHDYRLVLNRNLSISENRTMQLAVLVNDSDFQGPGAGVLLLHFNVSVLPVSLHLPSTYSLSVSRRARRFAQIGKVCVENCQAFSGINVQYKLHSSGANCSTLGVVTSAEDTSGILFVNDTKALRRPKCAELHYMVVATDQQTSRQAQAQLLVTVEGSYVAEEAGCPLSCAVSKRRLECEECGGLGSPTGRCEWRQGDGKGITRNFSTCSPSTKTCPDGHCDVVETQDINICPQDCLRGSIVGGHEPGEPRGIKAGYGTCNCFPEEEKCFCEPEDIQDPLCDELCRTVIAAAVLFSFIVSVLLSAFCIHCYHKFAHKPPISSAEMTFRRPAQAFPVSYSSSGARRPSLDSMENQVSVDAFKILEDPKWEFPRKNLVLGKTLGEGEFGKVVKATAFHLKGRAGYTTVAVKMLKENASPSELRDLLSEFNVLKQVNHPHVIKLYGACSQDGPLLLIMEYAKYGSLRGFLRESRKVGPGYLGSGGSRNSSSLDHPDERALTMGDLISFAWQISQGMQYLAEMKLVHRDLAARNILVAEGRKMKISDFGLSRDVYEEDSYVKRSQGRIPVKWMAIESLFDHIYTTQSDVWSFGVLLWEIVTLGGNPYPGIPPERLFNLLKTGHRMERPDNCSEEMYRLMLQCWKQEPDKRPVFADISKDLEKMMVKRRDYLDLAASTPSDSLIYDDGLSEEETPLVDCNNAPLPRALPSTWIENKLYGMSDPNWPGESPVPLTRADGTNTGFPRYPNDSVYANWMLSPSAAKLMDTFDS
# Protocol: as §1
# [5] = molecular target: Leukotriene, Cysteinyl CysLT1 (Homo sapiens, UniProt Q9Y271); assay: Safety screen; format: binding
# Protocol: as §3
# SAPK3(h) = SAPK3(h) (Homo sapiens, UniProt P53778); assay: Kinase Profiler; format: biochemical
# Protocol: as §1
# CDK1/cyclinB(h), sequence (P06493 whole entry): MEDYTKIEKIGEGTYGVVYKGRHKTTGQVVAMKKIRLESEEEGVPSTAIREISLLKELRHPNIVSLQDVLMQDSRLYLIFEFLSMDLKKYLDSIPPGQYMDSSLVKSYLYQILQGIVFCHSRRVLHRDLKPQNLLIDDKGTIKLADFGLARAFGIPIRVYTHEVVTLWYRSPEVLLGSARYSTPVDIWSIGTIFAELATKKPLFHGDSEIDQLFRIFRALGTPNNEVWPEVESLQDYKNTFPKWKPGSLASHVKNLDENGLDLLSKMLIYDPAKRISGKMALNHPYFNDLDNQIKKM
# CDK1/cyclinB(h), sequence (P14635 whole entry partner): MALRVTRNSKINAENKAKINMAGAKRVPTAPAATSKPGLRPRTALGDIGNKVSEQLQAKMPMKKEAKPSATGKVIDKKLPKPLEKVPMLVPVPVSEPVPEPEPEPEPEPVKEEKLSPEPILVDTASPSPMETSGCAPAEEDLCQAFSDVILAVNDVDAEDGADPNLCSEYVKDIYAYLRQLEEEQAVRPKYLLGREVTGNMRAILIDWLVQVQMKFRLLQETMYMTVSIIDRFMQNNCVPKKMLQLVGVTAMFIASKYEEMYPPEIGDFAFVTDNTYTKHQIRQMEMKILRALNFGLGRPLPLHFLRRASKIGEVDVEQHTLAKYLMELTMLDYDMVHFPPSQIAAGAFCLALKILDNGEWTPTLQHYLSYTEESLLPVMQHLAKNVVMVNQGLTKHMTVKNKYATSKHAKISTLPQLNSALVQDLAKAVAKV
# PDGFRα(h), sequence (P16234 24-1089): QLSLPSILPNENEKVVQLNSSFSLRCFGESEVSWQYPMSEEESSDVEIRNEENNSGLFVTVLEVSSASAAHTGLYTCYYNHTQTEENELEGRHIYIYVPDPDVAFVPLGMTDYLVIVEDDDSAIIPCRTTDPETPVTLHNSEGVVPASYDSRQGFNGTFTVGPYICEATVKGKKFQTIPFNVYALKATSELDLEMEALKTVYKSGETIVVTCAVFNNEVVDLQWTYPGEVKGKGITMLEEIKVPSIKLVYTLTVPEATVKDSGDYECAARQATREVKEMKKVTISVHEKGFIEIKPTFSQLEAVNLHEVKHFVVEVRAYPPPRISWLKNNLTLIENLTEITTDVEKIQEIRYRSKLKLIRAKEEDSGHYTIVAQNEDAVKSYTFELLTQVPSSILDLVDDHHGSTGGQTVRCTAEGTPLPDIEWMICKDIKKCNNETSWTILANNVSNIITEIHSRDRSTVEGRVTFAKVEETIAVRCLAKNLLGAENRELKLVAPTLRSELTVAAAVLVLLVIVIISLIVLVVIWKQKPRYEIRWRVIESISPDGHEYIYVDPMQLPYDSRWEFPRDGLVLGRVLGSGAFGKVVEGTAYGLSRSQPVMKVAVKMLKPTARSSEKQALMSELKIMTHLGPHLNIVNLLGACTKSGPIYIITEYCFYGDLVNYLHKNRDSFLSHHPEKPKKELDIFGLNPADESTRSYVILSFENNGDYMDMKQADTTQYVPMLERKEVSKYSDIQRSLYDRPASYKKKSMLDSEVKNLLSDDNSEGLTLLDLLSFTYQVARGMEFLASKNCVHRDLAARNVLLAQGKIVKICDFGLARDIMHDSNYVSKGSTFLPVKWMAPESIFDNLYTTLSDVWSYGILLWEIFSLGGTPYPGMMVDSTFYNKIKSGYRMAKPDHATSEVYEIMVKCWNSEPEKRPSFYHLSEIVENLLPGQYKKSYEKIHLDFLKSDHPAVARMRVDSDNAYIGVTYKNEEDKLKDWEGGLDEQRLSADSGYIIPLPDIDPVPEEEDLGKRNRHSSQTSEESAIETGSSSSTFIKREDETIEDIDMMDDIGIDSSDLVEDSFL
smiles,measurement,setting,value
COc1ccc(OC)c(NS(=O)(=O)c2ccc(NC(=O)CCSc3ccc(C)cc3)cc2)c1 [Compound A41],% inh.,[1],-1%
same,Activity(%),PKCβII(h),97%
same,Activity(%),CDK1/cyclinB(h),96%
same,Activity(%),PDGFRα(h),92%
same,Activity(%),MEK1(h),97%
same,Activity(%),MSK1(h),117%
same,Activity(%),TYK2(h),108%
same,% inh.,[2],45%
same,Activity(%),Rsk3(h),93%
same,% inh.,GABAB1A,-6%
same,Activity(%),TLK2(h),101%
same,Activity(%),MAP4K3(h),98%
same,% inh.,Muscarinic M3,4%
same,Activity(%),GSK3β(h),90%
same,binding,CDC42,No binding was measured
same,% inh.,[3],-6%
same,Activity(%),PAK5(h),105%
same,Activity(%),"IR(h), activated",104%
same,% inh.,[4],52%
same,size of the spheroids,MDA-MB-468 spheroids,not affected
same,migration area of spheroids,MDA-MB-468 spheroids; 3D collagen gel,reduced the migration area
same,Activity(%),PTK5(h),113%
same,% inh.,Phosphodiesterase PDE3,9%
same,Activity(%),Ret(V804M)(h),106%
same,% inh.,[5],14%
same,Activity(%),SAPK3(h),105%

# From publication PMC12281424, “A Rac-specific competitive inhibitor of guanine nucleotide binding reduces metastasis in triple-negative breast cancer” (Cell Reports Medicine, 2025)
